Where two headings read alike, the source gives them in different places.
How the values were obtained:
Src = Src (Homo sapiens, UniProt P12931); test: biochemical; settings: read-out: Src activity as percentage of control without inhibitor; for remaining activity at 10 µM: inhibitor 10 μM
Experimental: Assays were performed for 30 minutes except assays for LCK and PKB which were performed for 15 minutes using Multidrop Micro reagent dispensers (Thermo Electron Corporation, Waltham, Mass. 02454, USA) in a 96-well format. The concentration of […] [γ-^33P] ATP (800 cpm/pmol) in the assays was one of three concentrations (5, 20 or 50 μM) in order to be at or below Km for ATP for the enzyme. Assays were initiated with MgATP and stopped by addition of 5 μl of 0.5M orthophosphoric acid. Assays were then harvested onto P81 filterplates using a unifilter harvester (PerkinElmer, Boston, Mass. 02118, USA), with a wash buffer of 50 mM orthophosphoric acid. Filterplates were then air dried overnight. 10 μl of Microscint O was added per well prior to counting for radioactivity.
(§1) The following kinases were assayed against the substrates indicated. Aurora B was assayed against the substrate peptide […] (300 μM), ERK8 and MST-2 were both assayed against MBP (0.33 mg/ml). IKKβ was assayed against the substrate peptide […] (300 μM), JNK3 was assayed against 3 μM ATF2[19-96]. MAPKAP-K3 and PKD1 were both assayed against […] (30 μM), MARK3 was assayed against CHKtide ([…]) substrate peptide (300 μM). MNK1 and MNK2 were both assayed against eIF4E protein (0.5 mg/ml). NEK7 was assayed against […] (300 μM), PIM2 was assayed against […] (300 μM), ΔPH PKBβ-S474D was assayed against Crosstide (30 μM), PLK1 was assayed against […] (300 μM). PRK2 was assayed against Long S6 peptide, […] (30 μM), RSK2 was assayed against […] (30 μM), SRC was assayed against cdc2 peptide, […], (300 μM) and SRPK1 was assayed against peptide […] (300 μM). All enzymes were diluted in 50 mM Tris/HCl pH 7.5, 0.1 mM EGTA, 1 mg/ml BSA, 0.1% β-mercaptoethanol buffer and assayed in an incubation containing 50 mM Tris/HCl pH7.5, 0.1 mM EGTA, 0.1% β-mercaptoethanol, CAMK-1 (5-20 mU) diluted in 50 mM Tris/HCl pH 7.5, 0.1 mM EGTA, 1 mg/ml BSA, 0.1% β-mercaptoethanol is assayed against substrate peptide […] in an incubation containing 50 mM Tris/HCl pH 7.5, 0.1 mM EGTA, 0.5 mM CaCl2, 0.3 μM calmodulin, 0.1% β-mereaptoethanol, 300 μM substrate peptide, 10 mM magnesium acetate and 0.05 mM [^33P-γ-ATP] (500-1000 cpm/pmole). EF2K (5-20 mU) diluted in 50 mM Hepes pH 6.6, 0.1% β-mercaptoethanol, 1 mg/ml BSA is assayed against a substrate peptide […] in an incubation containing 50 mM Hepes pH 6.6, 0.2 mM CaCl2, 0.3 μM Calmodulin, 0.05% b-mercaptoethanol, 300 μM substrate peptide, 10 mM magnesium acetate and 0.05 mM [^33P-γ-ATP] (500-1000 cpm/pmole).

PIM2 = PIM2 (Homo sapiens, UniProt Q9P1W9); test: PIM2 33P kinase assay; assay type: biochemical; settings: read-out: PIM2 activity as percentage of control without inhibitor
Experimental: (§2) All assays (25.5 μl) were carried out at room temperature (21° C.) and were linear with respect to time and enzyme concentrations under the conditions used. Assays were performed for 30 minutes except assays for LCK and PKB which were performed for 15 minutes using Multidrop Micro reagent dispensers (Thermo Electron Corporation, Waltham, Mass. 02454, USA) in a 96-well format. The concentration of […] [γ-^33P] ATP (800 cpm/pmol) in the assays was one of three concentrations (5, 20 or 50 μM) in order to be at or below Km for ATP for the enzyme. Assays were initiated with MgATP and stopped by addition of 5 μl of 0.5M orthophosphoric acid. Assays were then harvested onto P81 filterplates using a unifilter harvester (PerkinElmer, Boston, Mass. 02118, USA), with a wash buffer of 50 mM orthophosphoric acid. Filterplates were then air dried overnight. 10 μl of Microscint O was added per well prior to counting for radioactivity.
as §1

MAPKAP-K1a = MAPKAP-K1a (Homo sapiens, UniProt Q15418); test: MAPKAP-K1a 33P kinase assay; assay type: biochemical; settings: read-out: MAPKAP-K1a activity as percentage of control without inhibitor
Experimental: as §2
MAPKAP-K1a (5-20 mU diluted in 20 mM MOPS pH 7.5, 1 mM EDTA, 0.01% Brij35, 5% glycerol, 0.1% β-mercaptoethanol, 1 mg/ml BSA) is assayed against […] in a final volume of 25.5 μl containing 50 mM Na-β-glycerophosphate pH 7.5, 0.5 mM EDTA, 30 μM substrate peptide, 10 mM magnesium acetate and 0.05 mM [33P- γATP] (50-1000 cpm/pmole) and incubated for 40 min at room temperature.

Sequence of Src (P12931 whole entry, species assumed): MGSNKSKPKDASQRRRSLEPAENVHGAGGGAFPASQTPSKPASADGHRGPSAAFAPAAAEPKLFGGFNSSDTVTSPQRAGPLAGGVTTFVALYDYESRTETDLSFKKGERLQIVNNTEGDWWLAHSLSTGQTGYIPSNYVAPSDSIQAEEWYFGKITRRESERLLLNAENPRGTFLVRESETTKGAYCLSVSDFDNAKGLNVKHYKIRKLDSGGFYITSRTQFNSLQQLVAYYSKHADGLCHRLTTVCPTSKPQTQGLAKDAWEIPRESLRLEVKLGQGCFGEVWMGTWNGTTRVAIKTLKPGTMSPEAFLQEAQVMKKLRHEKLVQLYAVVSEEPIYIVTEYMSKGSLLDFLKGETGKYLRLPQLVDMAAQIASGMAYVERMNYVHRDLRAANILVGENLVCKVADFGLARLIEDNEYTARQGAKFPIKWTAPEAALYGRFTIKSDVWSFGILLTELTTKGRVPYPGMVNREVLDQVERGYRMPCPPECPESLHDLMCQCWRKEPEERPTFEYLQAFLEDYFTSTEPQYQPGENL
Sequence of PIM2 (Q9P1W9 whole entry, species assumed): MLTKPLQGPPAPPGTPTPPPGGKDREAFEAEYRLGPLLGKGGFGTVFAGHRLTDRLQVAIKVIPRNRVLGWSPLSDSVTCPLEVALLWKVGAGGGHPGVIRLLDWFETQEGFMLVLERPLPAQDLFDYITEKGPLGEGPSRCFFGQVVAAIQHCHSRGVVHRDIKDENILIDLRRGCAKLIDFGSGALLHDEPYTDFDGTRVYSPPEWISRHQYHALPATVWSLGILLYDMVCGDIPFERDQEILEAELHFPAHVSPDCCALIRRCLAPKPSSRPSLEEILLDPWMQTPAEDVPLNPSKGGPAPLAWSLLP
Sequence of MAPKAP-K1a (Q15418 whole entry, species assumed): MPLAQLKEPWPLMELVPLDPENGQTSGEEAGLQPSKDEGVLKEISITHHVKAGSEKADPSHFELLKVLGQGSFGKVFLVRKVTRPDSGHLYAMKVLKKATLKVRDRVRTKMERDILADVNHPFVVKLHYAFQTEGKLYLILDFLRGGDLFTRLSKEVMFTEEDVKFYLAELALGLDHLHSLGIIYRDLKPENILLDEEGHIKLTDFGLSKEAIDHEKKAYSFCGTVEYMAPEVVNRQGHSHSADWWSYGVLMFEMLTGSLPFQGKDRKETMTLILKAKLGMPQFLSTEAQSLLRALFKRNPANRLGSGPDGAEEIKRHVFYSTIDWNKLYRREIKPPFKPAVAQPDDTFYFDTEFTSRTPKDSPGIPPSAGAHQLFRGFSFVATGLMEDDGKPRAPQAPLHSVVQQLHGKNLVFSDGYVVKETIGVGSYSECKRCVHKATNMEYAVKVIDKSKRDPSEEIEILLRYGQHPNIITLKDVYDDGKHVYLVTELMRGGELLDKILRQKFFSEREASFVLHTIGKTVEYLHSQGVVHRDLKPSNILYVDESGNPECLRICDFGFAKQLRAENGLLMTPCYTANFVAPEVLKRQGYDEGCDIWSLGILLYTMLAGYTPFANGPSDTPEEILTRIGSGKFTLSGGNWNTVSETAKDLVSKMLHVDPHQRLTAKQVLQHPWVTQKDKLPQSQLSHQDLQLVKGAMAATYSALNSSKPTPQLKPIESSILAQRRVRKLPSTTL

Structure (SMILES) | remaining activity at 1 µM (Src; inhibitor 1 μM) | remaining activity at 10 µM (Src) | remaining activity at 1 µM (PIM2; inhibitor 1 μM) | remaining activity at 10 µM (PIM2; inhibitor 10 μM) | remaining activity at 1 µM (MAPKAP-K1a; inhibitor 1 μM) | remaining activity at 10 µM (MAPKAP-K1a; inhibitor 10 μM) | remaining activity at 1 µM (Src) | remaining activity at 1 µM (PIM2) | remaining activity at 10 µM (PIM2) | remaining activity at 1 µM (MAPKAP-K1a) | remaining activity at 10 µM (MAPKAP-K1a)
COc1ccc2c3c([nH]c2c1)C(C)=NCC3 [Harmaline] | 47% | 65% | 86% | 101% | 98% | 90% | – | – | – | – | –
CC1=NCCc2c1[nH]c1cc(O)ccc21 [Harmalol] | 101% | 83% | 90% | 57% | 101% | 85% | – | – | – | – | –
COc1ccc2c(c1)[nH]c1c(C)nccc12 [Harmine] | – | – | – | – | – | – | 108% | 77% | 41% | 105% | 92%

Reference: patent publication US20100063085A1, “METHOD OF TREATING LEARNING IMPAIRMENT IN DOWN'S SYNDROME SUBJECTS” (University Court of The University of Dundee, priority 2008, published 2010)
